Molecular target: IKZF2 (Homo sapiens (Human), UniProt Q96SW2+Q9UKS7)
Assay: IKZF2 HiBiT Assay (Jurkat-IKZF2-HiBiT cell line)
Assay type: cell-based
Details: Jurkat-IKZF2-HiBiT cells, 24 hours; for DC50: read-out: HiBit assay degradation analysis DC50; for Dmax: read-out: HiBit assay degradation analysis Dmax
Method: Degradation of IKZF2 protein is determined by IKZF2 HiBiT assay using the Jurkat-IKZF2-HiBiT (Promega) cell line. Briefly, cells are seeded in culture medium. Compounds are serially diluted in culture medium, and certain volume of the diluted compounds is added to the appropriate well of the plate. After the addition of compounds, the cells are incubated. At the end of treatment, Nano-Glo HiBiT Lytic Detection Reagent (Promega) is added to each well, and then the plates are incubated at room temperature for a certain time period. The luminescent signal is measured using a CALRIOstar plate reader (BMG Labtech). The readings are normalized to the DMSO-treated cells and the IC50 is calculated by nonlinear regression (four parameters sigmoid fitted with variable slope, least squares fit, and no constraint) analysis using the GraphPad Prism 8 software.
Degradation of IKZF2 protein was determined by IKZF2 HiBiT assay using the Jurkat-IKZF2-HiBiT (Promega) cell line. […] Compounds were serially diluted in culture medium, and 20 μl of the diluted compounds were added to the appropriate wells of the plate. After the addition of compounds, the cells were incubated at 37° C. in an atmosphere of 5% CO2 for 24 hours. At the end of treatment, 40 ul of Nano-Glo HiBiT Lytic Detection Reagent (Promega) was added to each well, and then the plates were incubated at room temperature for 10-20 minutes. The luminescent signal was measured using a CALRIOstar plate reader (BMG Labtech). The readings were normalized to the DMSO-treated cells and the IC50 was calculated by nonlinear regression (four parameters sigmoid fitted with variable slope, least squares fit, and no constraint) analysis using the GraphPad Prism 8 software.

Sequence of IKZF2 (Q9UKS7 whole entry): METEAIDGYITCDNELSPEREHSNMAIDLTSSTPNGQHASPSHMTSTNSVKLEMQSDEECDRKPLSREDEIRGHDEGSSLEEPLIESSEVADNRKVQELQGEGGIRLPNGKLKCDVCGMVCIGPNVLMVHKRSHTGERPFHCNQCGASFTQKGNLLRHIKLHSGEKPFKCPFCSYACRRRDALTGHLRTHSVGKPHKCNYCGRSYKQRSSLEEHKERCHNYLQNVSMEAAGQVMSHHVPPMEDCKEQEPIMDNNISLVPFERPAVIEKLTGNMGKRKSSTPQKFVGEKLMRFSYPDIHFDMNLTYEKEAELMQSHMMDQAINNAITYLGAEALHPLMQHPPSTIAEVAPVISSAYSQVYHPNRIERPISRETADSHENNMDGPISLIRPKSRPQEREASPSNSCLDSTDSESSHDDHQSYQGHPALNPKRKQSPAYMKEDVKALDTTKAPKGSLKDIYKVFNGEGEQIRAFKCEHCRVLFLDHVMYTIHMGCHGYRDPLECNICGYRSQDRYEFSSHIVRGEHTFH
Sequence of IKZF2 (Q96SW2 whole entry): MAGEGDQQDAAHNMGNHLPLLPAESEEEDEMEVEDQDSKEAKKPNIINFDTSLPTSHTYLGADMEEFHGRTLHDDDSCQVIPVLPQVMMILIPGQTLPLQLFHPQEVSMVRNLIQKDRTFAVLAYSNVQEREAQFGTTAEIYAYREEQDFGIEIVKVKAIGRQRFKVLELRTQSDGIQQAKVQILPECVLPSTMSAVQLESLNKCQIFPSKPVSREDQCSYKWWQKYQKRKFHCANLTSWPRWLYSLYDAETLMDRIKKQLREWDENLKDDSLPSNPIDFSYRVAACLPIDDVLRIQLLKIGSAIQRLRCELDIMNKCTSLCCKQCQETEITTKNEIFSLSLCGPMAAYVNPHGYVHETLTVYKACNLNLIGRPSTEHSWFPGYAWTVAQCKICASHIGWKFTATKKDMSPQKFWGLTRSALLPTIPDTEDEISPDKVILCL
Sequence of IKZF2 (Q16531 whole entry partner): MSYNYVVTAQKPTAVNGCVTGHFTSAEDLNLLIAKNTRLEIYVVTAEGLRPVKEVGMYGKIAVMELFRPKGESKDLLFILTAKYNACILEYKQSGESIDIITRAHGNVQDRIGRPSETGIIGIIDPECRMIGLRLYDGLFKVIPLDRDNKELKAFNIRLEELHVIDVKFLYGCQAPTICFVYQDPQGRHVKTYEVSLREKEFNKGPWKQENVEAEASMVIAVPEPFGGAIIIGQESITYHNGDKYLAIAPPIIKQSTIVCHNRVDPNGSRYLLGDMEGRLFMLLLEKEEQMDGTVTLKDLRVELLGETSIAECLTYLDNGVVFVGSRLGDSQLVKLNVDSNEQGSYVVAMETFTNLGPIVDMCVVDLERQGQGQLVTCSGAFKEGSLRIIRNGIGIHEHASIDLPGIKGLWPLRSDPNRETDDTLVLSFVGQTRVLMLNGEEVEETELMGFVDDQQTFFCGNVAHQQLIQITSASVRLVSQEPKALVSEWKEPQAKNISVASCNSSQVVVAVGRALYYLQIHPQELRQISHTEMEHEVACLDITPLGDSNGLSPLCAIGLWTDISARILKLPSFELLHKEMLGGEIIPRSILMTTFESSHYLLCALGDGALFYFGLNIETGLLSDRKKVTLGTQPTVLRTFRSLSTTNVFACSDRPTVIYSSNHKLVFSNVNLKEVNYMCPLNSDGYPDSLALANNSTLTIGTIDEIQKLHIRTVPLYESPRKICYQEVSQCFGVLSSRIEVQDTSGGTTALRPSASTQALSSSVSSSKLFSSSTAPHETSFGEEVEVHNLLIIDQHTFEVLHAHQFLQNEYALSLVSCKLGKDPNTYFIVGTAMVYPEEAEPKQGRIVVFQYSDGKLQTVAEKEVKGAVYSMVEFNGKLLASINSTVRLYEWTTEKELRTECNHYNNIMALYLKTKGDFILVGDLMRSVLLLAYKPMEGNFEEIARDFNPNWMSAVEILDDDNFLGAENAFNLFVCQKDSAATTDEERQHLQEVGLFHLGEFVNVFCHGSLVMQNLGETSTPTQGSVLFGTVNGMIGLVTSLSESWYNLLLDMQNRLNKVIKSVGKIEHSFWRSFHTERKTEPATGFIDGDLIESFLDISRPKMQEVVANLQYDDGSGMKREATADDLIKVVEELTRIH

| SMILES | DC50 [nM] | Dmax [%] |
| --- | --- | --- |
| O=C1CCC(N2Cc3c(ccc4c3OCC43CCN(CC4CCCc5ccccc54)CC3)C2=O)C(=O)N1 (stereo not shown) [Compound A21, 3-(6-oxo-1′-((1,2,3,4-tetrahydronaphthalen-1-yl)methyl)-6,8-dihydro-2H,7H-spiro[furo[2,3-e]isoindole-3,4′-piperidin]-7-yl)piperidine-2,6-dione] | > 500 | 60 to 80 |
| O=C1CCC(N2Cc3c(ccc4c3OCC43CCN(Cc4ccc(Cl)cc4F)CC3)C2=O)C(=O)N1 (stereo not shown) [Compound A4, 3-(1′-(4-chloro-2-fluorobenzyl)-6-oxo-6,8-dihydro-2H,7H-spiro[furo[2,3-e]isoindole-3,4′-piperidin]-7-yl)piperidine-2,6-dione] | > 500 | 40 to 60 |
| O=C1CCC(N2Cc3c(ccc4c3OCC43CCN(CC4CCCC4)CC3)C2=O)C(=O)N1 (stereo not shown) [Compound A18, 3-(1′-(cyclopentylmethyl)-6-oxo-6,8-dihydro-2H,7H-spiro[furo[2,3-e]isoindole-3,4′-piperidin]-7-yl)piperidine-2,6-dione] | > 500 | < 40 |
| O=C1CCC(N2Cc3c(ccc4c3OCC43CCN(Cc4cnn(CC(F)(F)F)c4)CC3)C2=O)C(=O)N1 (stereo not shown) [Compound A232, 3-(6-oxo-1′-((1-(2,2,2-trifluoroethyl)-1H-pyrazol-4-yl)methyl)-6,8-dihydro-2H,7H-spiro[furo[2,3-e]isoindole-3,4′-piperidin]-7-yl)piperidine-2,6-dione] | > 500 | 40 to 60 |
| O=C1CCC(N2Cc3c(ccc4c3OCC43CCN(Cc4cnn(-c5cccc(Cl)c5)c4)CC3)C2=O)C(=O)N1 (stereo not shown) [Compound A313, 3-(1′-((1-(3-chlorophenyl)-1H-pyrazol-4-yl)methyl)-6-oxo-6,8-dihydro-2H,7H-spiro[furo[2,3-e]isoindole-3,4′-piperidin]-7-yl)piperidine-2,6-dione] | 50 to 200 | 60 to 80 |
| CCn1cc(CN2CCC3(CC2)COc2c3ccc3c2CN(C2CCC(=O)NC2=O)C3=O)cn1 (stereo not shown) [Compound A229, 3-(1′-((1-ethyl-1H-pyrazol-4-yl)methyl)-6-oxo-6,8-dihydro-2H,7H-spiro[furo[2,3-e]isoindole-3,4′-piperidin]-7-yl)piperidine-2,6-dione] | > 500 | 40 to 60 |
| O=C1CCC(N2Cc3c(ccc4c3OCC43CCN(Cc4cccc(-c5ncon5)c4)CC3)C2=O)C(=O)N1 (stereo not shown) [Compound A150, 3-(1′-(3-(1,2,4-oxadiazol-3-yl)benzyl)-6-oxo-6,8-dihydro-2H,7H-spiro[furo[2,3-e]isoindole-3,4′-piperidin]-7-yl)piperidine-2,6-dione] | 50 to 200 | 60 to 80 |
| Cn1nc(CN2CCC3(CC2)COc2c3ccc3c2CN(C2CCC(=O)NC2=O)C3=O)c2ccccc21 (stereo not shown) [Compound A226, 3-(1′-((1-methyl-1H-indazol-3-yl)methyl)-6-oxo-6,8-dihydro-2H,7H-spiro[furo[2,3-e]isoindole-3,4′-piperidin]-7-yl)piperidine-2,6-dione] | > 500 | 40 to 60 |
| N#Cc1ccc(CN2CCC3(CC2)COc2c3ccc3c2CN(C2CCC(=O)NC2=O)C3=O)cc1Cl (stereo not shown) [Compound A33, 2-chloro-4-((7-(2,6-dioxopiperidin-3-yl)-6-oxo-7,8-dihydro-2H,6H-spiro[furo[2,3-e]isoindole-3,4′-piperidin]-1′-yl)methyl)benzonitrile] | > 500 | 40 to 60 |
| O=C1CCC(N2Cc3c(ccc4c3OCC43CCN(Cc4ccc5oc(=O)[nH]c5c4)CC3)C2=O)C(=O)N1 (stereo not shown) [Compound A165, 3-(6-oxo-1′-((2-oxo-2,3-dihydrobenzo[d]oxazol-5-yl)methyl)-6,8-dihydro-2H,7H-spiro[furo[2,3-e]isoindole-3,4′-piperidin]-7-yl)piperidine-2,6-dione] | 50 to 200 | 60 to 80 |
| CS(=O)(=O)c1ccc(CN2CCC3(CC2)COc2c3ccc3c2CN(C2CCC(=O)NC2=O)C3=O)cc1 (stereo not shown) [Compound A236, 3-(1′-(4-(methylsulfonyl)benzyl)-6-oxo-6,8-dihydro-2H,7H-spiro[furo[2,3-e]isoindole-3,4′-piperidin]-7-yl)piperidine-2,6-dione] | > 500 | < 40 |
| O=C1CCC(N2Cc3c(ccc4c3OCC43CCN(Cc4cccc5c4OCC5)CC3)C2=O)C(=O)N1 (stereo not shown) [Compound A224, 3-(1′-((2,3-dihydrobenzofuran-7-yl)methyl)-6-oxo-6,8-dihydro-2H,7H-spiro[furo[2,3-e]isoindole-3,4′-piperidin]-7-yl)piperidine-2,6-dione] | 200 to 500 | 40 to 60 |
| O=C1CCC(N2Cc3c(ccc4c3OCC43CCN(Cc4cnn(-c5ccc(F)cc5)c4)CC3)C2=O)C(=O)N1 (stereo not shown) [Compound A312, 3-(1′-((1-(4-fluorophenyl)-1H-pyrazol-4-yl)methyl)-6-oxo-6,8-dihydro-2H,7H-spiro[furo[2,3-e]isoindole-3,4′-piperidin]-7-yl)piperidine-2,6-dione] | > 500 | 40 to 60 |
| O=C1CC[C@H](N2Cc3c(ccc4c3OCC43CCN(Cc4cnn(S(=O)(=O)c5ccc(F)cc5)c4)CC3)C2=O)C(=O)N1 [Compound A354, (S)-3-(1′-((1-((4-fluorophenyl)sulfonyl)-1H-pyrazol-4-yl)methyl)-6-oxo-6,8-dihydro-2H,7H-spiro[furo[2,3-e]isoindole-3,4′-piperidin]-7-yl)piperidine-2,6-dione] | – | 40 to 60 |
| O=C1CCC(N2Cc3c(ccc4c3OCC43CCN(Cc4cccc5[nH]cnc45)CC3)C2=O)C(=O)N1 (stereo not shown) [Compound A71, 3-(1′-((1H-benzo[d]imidazol-4-yl)methyl)-6-oxo-6,8-dihydro-2H,7H-spiro[furo[2,3-e]isoindole-3,4′-piperidin]-7-yl)piperidine-2,6-dione] | > 500 | 40 to 60 |
| O=C1CCC(N2Cc3c(ccc4c3OCC43CCN(Cc4ccc(F)c5ccccc45)CC3)C2=O)C(=O)N1 (stereo not shown) [Compound A36, 3-(1′-((4-fluoronaphthalen-1-yl)methyl)-6-oxo-6,8-dihydro-2H,7H-spiro[furo[2,3-e]isoindole-3,4′-piperidin]-7-yl)piperidine-2,6-dione] | 50 to 200 | 60 to 80 |
| O=C1CC[C@H](N2Cc3c(ccc4c3OCC43CCN(C4Cc5ccccc5C4)CC3)C2=O)C(=O)N1 [Compound A275, (S)-3-(1′-(2,3-dihydro-1H-inden-2-yl)-6-oxo-6,8-dihydro-2H,7H-spiro[furo[2,3-e]isoindole-3,4′-piperidin]-7-yl)piperidine-2,6-dione] | > 500 | 40 to 60 |
| Cn1ccc2c(CN3CCC4(CC3)COc3c4ccc4c3CN(C3CCC(=O)NC3=O)C4=O)cccc21 (stereo not shown) [Compound A109, 3-(1′-((1-methyl-1H-indol-4-yl)methyl)-6-oxo-6,8-dihydro-2H,7H-spiro[furo[2,3-e]isoindole-3,4′-piperidin]-7-yl)piperidine-2,6-dione] | < 50 | 60 to 80 |
| O=C1CCC(N2Cc3c(ccc4c3OCC43CCN(Cc4ccc(-c5cn[nH]c5)cc4)CC3)C2=O)C(=O)N1 (stereo not shown) [Compound A162, 3-(1′-(4-(1H-pyrazol-4-yl)benzyl)-6-oxo-6,8-dihydro-2H,7H-spiro[furo[2,3-e]isoindole-3,4′-piperidin]-7-yl)piperidine-2,6-dione] | 50 to 200 | 60 to 80 |
